The results in this text go back to patent publication US7253187B2, “Heterocyclic inhibitors of ERK2 and uses thereof” (Vertex Pharmaceuticals Incorporated, priority 2001, dated 2007).

Each structure is given as a SMILES string. Some results are limits rather than exact numbers.

Test [1] deals with T1, Aurora-2 (Homo sapiens, UniProt O14965).
T1 sequence (O14965 1-403): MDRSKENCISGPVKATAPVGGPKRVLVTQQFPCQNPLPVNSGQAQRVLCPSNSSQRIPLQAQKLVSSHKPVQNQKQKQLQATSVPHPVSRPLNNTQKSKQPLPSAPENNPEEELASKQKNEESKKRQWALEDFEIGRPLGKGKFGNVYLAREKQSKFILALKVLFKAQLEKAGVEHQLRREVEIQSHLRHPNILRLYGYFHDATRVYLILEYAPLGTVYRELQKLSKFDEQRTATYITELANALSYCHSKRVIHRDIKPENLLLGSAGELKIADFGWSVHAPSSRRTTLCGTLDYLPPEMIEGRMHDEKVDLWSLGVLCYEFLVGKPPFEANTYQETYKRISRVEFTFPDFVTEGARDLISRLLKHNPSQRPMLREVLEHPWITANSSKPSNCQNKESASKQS
The experiment in a line: Aurora-2 inhibition assay (coupled enzyme assay). The format is biochemical. As for the experimental part: Compounds were screened in the following manner for their ability to inhibit Aurora-2 using a standard coupled enzyme assay (Fox et al (1998) Protein Sci 7, 2249).
To an assay stock buffer solution containing 0.1M HEPES 7.5, 10 mM MgCl2, 1 mM DTT, 25 mM NaCl, 2.5 mM phosphoenolpyruvate, […], 30 mg/ml pyruvate kinase, 10 mg/ml lactate dehydrogenase, […], and 800 μM peptide (LRRASLG, American Peptide, Sunnyvale, Calif.) was added a DMSO solution of a compound of the present invention to a final concentration of 30 μM. The resulting mixture was incubated at 30° C. for 10 min. The reaction was initiated by the addition of 10 μL of Aurora-2 stock solution to give a final concentration of 70 nM in the assay. The rates of reaction were obtained by monitoring absorbance at 340 nm over a 5 minute read time at 30° C. using a BioRad Ultramark plate reader (Hercules, Calif.). The Ki values were determined from the rate data as a function of inhibitor concentration.

For test [2], the target named is ERK2 (Homo sapiens, UniProt P28482). The experiment in a line: ERK2 inhibition assay (spectrophotometric coupled-enzyme assay). Format: biochemical. The note with it: read-out: ERK2 Inhibitory Activity (Ki class D-F). As for the experimental part:
The IC50 was evaluated from the rate data as a function of inhibitor concentration. […] The compound numbers correspond to the compound numbers in Table 1.

Test [3] deals with T2, GSK-3β (AA 1–420) (Homo sapiens, UniProt P49841).
T2 construct: GSK-3β (AA 1–420)
The experiment in a line: GSK-3 inhibition assay (coupled enzyme system). Format: biochemical. The note with it: read-out: GSK3 Inhibitory Activity (Ki class). Summed up: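 ADP production read via pyruvate kinase/lactate dehydrogenase–coupled NADH consumption over 10 min at 30 °C. Ki derived from rates versus inhibitor concentration.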

The target in test [4] is CDK-2/Cyclin A (Homo sapiens, UniProt P24941). In words: CDK-2 inhibition assay (coupled enzyme assay). The format is biochemical. As for the experimental part: To an assay stock buffer solution containing 0.1M HEPES 7.5, 10 mM MgCl2, 1 mM DTT, 25 mM NaCl, 2.5 mM phosphoenolpyruvate, […], […], […], […], and 100 μM peptide ([…], American Peptide, Sunnyvale, Calif.) was added a DMSO solution of a compound of the present invention to a final concentration of 30 μM.
The Ki values were determined from the rate data as a function of inhibitor concentration.

Test [5] relates to Colon cancer cells (HT-29 cell line). In words: ERK2 inhibition: cell proliferation assay (3H-thymidine uptake). Format: cell-based. The settings on record: Homo sapiens, 3 days. Here is the method:
Compounds may be assayed for the inhibition of ERK2 by a cell proliferation assay. […] Colon cancer cells (HT-29 cell line) are added to each of 84-wells of a 96 well plate at a seeding density of 10,000 cells/well/150 μL. The cells are allowed to attach to the plate by incubating at 37° C. for 2 hours. […] The test compound solution (50 μL) is added to each of 72 cell-containing wells. To the 12 remaining cell-containing wells, only complete media (200 μL) is added to form a control group in order to measure maximal proliferation. To the remaining 12 empty wells, complete media is added to form a vehicle control group in order to measure background. The plates are incubated at 37° C. for 3 days. A stock solution of ^3H-thymidine (1 mCi/mL, New England Nuclear, Boston, Mass.) is diluted to 20 μCi/mL in RPMI medium then 20 μL of this solution is added to each well. The plates are further incubated at 37° C. for 8 hours then harvested and analyzed for ^3H-thymidine uptake using a liquid scintillation counter.

Test [6] deals with ERK1 (Homo sapiens, UniProt P27361). In words: ERK1 inhibition assay (spectrophotometric coupled-enzyme assay). The format is biochemical. The settings on record: read-out: inhibit ERK1 with an activity (Ki). As for the experimental part:
Compounds were assayed for the inhibition of ERK1 by a spectrophotometric coupled-enzyme assay (Fox et al (1998) Protein Sci 7, 2249). In this assay, a fixed concentration of activated ERK1 (20 nM) was incubated with various concentrations of the compound in DMSO (2.0%) for 10 min. at 30° C. in 0.1 M HEPES buffer, pH 7.6, containing 10 mM MgCl2, 2.5 mM-phosphoenolpyruvate, 200 μM NADH, 30 μg/mL pyruvate kinase, 10 μg/mL lactate dehydrogenase, and 150 μM erktide peptide. The reaction was initiated by the addition of 140 μM ATP (20 μL). The rate of decrease of absorbance at 340 nm was monitored. The Ki was evaluated from the rate data as a function of inhibitor concentration.

The target in test [7] is AKT3 (Homo sapiens, UniProt Q9Y243). In words: AKT3 inhibition assay (coupled enzyme assay). The format is biochemical. As for the experimental part:
Compounds were screened for their ability to inhibit AKT3 using a standard coupled enzyme assay (Fox et al., Protein Sci., (1998) 7, 2249). Assays were carried out in a mixture of 100 mM HEPES 7.5, 10 mM MgCl2, 25 mM NaCl , 1 mM DTT and 1.5% DMSO. Final substrate concentrations in the assay were 170 μM ATP (Sigma Chemicals) and 200 μM peptide (RPRAATF, American Peptide, Sunnyvale, Calif.). Assays were carried out at 30° C. and 45 nM AKT3. Final concentrations of the components of the coupled enzyme system were 2.5 mM phosphoenolpyruvate, 300 μM NADH, 30 μg/ML pyruvate kinase and 10 μg/ml lactate dehydrogenase.
An assay stock buffer solution was prepared containing all of the reagents listed above, with the exception of AKT3, DTT, and the test compound of interest. 56 μl of the stock solution was placed in a 384 well plate followed by addition of 1 μl of 2 mM DMSO stock containing the test compound (final compound concentration 30 μM). The plate was preincubated for about 10 minutes at 30° C. and the reaction initiated by addition of 10 μl of enzyme (final concentration 45 nM) and 1 mM DTT. Rates of reaction were obtained using a BioRad Ultramark plate reader (Hercules, Calif.) over a 5 minute read time at 30° C.

T2 sequence (P49841 whole entry, species assumed, the tested form may be a part): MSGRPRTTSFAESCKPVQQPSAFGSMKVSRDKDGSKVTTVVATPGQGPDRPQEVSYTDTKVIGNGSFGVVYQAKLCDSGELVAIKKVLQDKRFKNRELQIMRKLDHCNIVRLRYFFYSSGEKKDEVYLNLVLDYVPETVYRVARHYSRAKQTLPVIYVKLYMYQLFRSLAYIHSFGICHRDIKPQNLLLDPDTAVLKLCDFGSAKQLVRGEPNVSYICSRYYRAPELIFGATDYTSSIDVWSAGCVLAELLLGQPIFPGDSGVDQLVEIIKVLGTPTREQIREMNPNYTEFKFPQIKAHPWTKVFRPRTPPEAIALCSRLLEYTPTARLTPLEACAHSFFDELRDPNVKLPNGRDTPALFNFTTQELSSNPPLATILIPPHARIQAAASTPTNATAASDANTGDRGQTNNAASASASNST
Sequence of ERK1 (P27361 whole entry, species assumed): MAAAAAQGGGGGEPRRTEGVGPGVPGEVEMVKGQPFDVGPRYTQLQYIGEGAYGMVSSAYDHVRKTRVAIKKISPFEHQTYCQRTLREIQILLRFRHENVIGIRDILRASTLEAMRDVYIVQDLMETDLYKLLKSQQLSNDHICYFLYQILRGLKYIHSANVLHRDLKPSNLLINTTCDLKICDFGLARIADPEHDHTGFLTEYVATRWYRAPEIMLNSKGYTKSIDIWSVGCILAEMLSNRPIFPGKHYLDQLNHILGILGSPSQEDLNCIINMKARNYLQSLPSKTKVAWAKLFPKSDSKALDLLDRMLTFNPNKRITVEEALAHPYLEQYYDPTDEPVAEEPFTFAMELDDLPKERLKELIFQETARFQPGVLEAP
Sequence of ERK2 (P28482 whole entry): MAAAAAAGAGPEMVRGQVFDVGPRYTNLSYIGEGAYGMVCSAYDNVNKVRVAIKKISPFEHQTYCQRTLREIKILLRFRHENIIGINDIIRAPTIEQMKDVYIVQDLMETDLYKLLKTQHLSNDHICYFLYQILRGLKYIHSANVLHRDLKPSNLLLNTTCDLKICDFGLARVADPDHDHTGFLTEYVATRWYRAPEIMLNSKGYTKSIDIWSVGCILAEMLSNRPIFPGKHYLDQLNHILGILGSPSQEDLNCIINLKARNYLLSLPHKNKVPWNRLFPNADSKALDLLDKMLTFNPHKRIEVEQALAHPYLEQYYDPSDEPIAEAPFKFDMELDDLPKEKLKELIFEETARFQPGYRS
Sequence of AKT3 (Q9Y243 whole entry, species assumed): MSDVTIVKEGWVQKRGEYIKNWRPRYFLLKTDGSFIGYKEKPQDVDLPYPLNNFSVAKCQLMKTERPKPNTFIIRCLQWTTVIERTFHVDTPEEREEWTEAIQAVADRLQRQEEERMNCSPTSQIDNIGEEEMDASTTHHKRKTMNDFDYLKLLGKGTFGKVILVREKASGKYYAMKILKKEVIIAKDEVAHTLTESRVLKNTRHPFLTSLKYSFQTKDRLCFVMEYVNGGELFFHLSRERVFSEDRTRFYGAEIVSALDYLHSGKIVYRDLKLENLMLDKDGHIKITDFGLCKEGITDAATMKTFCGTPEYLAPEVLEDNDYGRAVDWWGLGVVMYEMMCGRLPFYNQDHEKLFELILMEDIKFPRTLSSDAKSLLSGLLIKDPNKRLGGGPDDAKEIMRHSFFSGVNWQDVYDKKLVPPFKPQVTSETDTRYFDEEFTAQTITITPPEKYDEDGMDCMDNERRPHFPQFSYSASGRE

Take `Cc1cnc(Nc2ccccc2)nc1-c1c[nH]c(C(=O)NC(CO)c2ccccc2)c1` (stereo not drawn) [III-a-116, 4-(5-Methyl-2-phenylamino-pyrimidin-4-yl)-1H-pyrrole-2-carboxylic acid (2-hydroxy-1-phenyl-ethyl)-amide]: the “found to inhibit Aurora-2” value in test [1] was “found to inhibit Aurora-2”.
`CCNc1ncc(C)c(-c2c[nH]c(C(=O)N[C@H](CO)c3ccccc3)c2)n1` [III-a-117, 4-(2-Ethylamino-5-methyl-pyrimidin-4-yl)-1H-pyrrole-2-carboxylic acid (2-hydroxy-1-phenyl-ethyl)-amide]: the Ki in test [2] is less than 100 nM; in test [3], less than 100 nM; in test [4], 1000 to 20000 nM. For the same compound, the “found to inhibit Aurora-2” value in test [1] is recorded as “found to inhibit Aurora-2”.
The compound `Cc1cnc(Nc2cccc(F)c2)nc1-c1c[nH]c(C(=O)NC(CO)c2ccccc2)c1` (stereo not drawn) [III-a-136, 4-[2-(3-Fluoro-phenylamino)-5-methyl-pyrimidin-4-yl]-1H-pyrrole-2-carboxylic acid (2-hydroxy-1-phenyl-ethyl)-amide] had an IC50 in test [5] of less than 100 nM. Further, the Ki in test [3] is less than 100 nM. Moreover, the “found to inhibit Aurora-2” value in test [1] is on record as “found to inhibit Aurora-2”.
`Cc1cnc(Nc2cccc(O)c2)nc1-c1c[nH]c(C(=O)NC(CO)c2ccccc2)c1` (stereo not drawn) [III-a-138, 4-[2-(3-Hydroxy-phenylamino)-5-methyl-pyrimidin-4-yl]-1H-pyrrole-2-carboxylic acid (2-hydroxy-1-phenyl-ethyl)-amide]: the Ki in test [3] was less than 100 nM. Further, the “found to inhibit Aurora-2” value in test [1] was “found to inhibit Aurora-2”.
As for `Cc1cnc(Nc2ccc3c(c2)OCO3)nc1-c1c[nH]c(C(=O)NC(CO)c2ccccc2)c1` (stereo not drawn) [III-a-139, 4-[2-(Benzo[1,3]dioxol-5-ylamino)-5-methyl-pyrimidin-4-yl]-1H-pyrrole-2-carboxylic acid (2-hydroxy-1-phenyl-ethyl)-amide], the Ki in test [2] and in test [3] was less than 100 nM each time. For the same compound, the IC50 in test [5] is less than 100 nM. The “found to inhibit Aurora-2” value in test [1] is “found to inhibit Aurora-2”.
As to `Cc1cnc(Nc2ccc(S(N)(=O)=O)cc2)nc1-c1c[nH]c(C(=O)NC(CO)c2ccccc2)c1` (stereo not drawn) [III-a-140, 4-[5-Methyl-2-(4-sulfamoyl-phenylamino)-pyrimidin-4-yl]-1H-pyrrole-2-carboxylic acid (2-hydroxy-1-phenyl-ethyl)-amide], the Ki in test [2] and in test [3] was less than 100 nM each time. Moreover, in test [1], the “found to inhibit Aurora-2” value was “found to inhibit Aurora-2”.
As for `Cc1cnc(Nc2cccc(OCc3ccccc3)c2)nc1-c1c[nH]c(C(=O)NC(CO)c2ccccc2)c1` (stereo not drawn) [III-a-141, 4-[2-(3-Benzyloxy-phenylamino)-5-methyl-pyrimidin-4-yl]-1H-pyrrole-2-carboxylic acid (2-hydroxy-1-phenyl-ethyl)-amide], the inhibition constant Ki in test [2] and in test [3] was less than 100 nM throughout. Moreover, in test [1], the “found to inhibit Aurora-2” value is “found to inhibit Aurora-2”.
Turning to `Cc1cnc(NC2CC2)nc1-c1c[nH]c(C(=O)NC(CO)c2cccc(C(F)(F)F)c2)c1` (stereo not drawn) [III-a-202, 4-(2-Cyclopropylamino-5-methyl-pyrimidin-4-yl)-1H-pyrrole-2-carboxylic acid [2-hydroxy-1-(3-trifluoromethyl-phenyl)-ethyl]-amide], the Ki in test [2] was less than 100 nM; in test [6] it was less than 100 nM; in test [3], more than 1000 nM.
On to `Cc1cnc(NC2CC2)nc1-c1c[nH]c(C(=O)NC(CO)c2cccc(Cl)c2)c1` (stereo not drawn) [III-a-204, 4-(2-Cyclopropylamino-5-methyl-pyrimidin-4-yl)-1H-pyrrole-2-carboxylic acid [1-(3-chloro-phenyl)-2-hydroxy-ethyl]-amide], for which the Ki in test [2] and in test [6] was less than 100 nM throughout.
As for `Cc1cccc(C(CO)NC(=O)c2cc(-c3nc(NC4CC4)ncc3C)c[nH]2)c1` (stereo not drawn) [III-a-205, 4–1(2-Cyclopropylamino-5-methyl-pyrimidin-4-yl)-1H-pyrrole-2-carboxylic acid (2-hydroxy-1-m-tolyl-ethyl)-amide], the results for the Ki in test [2], in test [6] and in test [3] were less than 100 nM, less than 100 nM and 100 to 1000 nM, respectively.
For the compound `Cc1cnc(NC#N)nc1-c1c[nH]c(C(=O)NC(CO)c2ccccc2)c1` (stereo not drawn) [III-a-238, 4-(2-Cyanoamino-5-methyl-pyrimidin-4-yl)-1H-pyrrole-2-carboxylic acid (2-hydroxy-1-phenyl-ethyl)-amide], the Ki in test [2] is less than 100 nM. In addition, the “inhibit AKT3” value in test [7] was “inhibit AKT3”.
